Activity calls are given as the source filed them. No rule for the calls is given here.
Tested on: luminescent cytotoxicity (cell viability) counter-screen
Test: cytotoxicity of Gli-SUFU antagonist hits, dose response, cytotoxicity control for Gli-SUFU antagonist project, cell-based, luminescence, uHTS hits (AID 651569);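 also: compound exposure lasted overnight before the viability readout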

Structure (SMILES)	IC50
CC(C)CCOC(=O)C[N+](C)(C)CCOC1CC2CCC1(C)C2(C)C (configuration not stated)	> 20 µM (inactive)
C=CCNc1nc2c(c(=O)n(C)c(=O)n2C)n1Cc1ccc(F)cc1	> 20 µM (inactive)
O=C(c1cnc(N2CCN(c3ccccn3)CC2)c2ccccc12)N1CCN(c2cccc(Cl)c2)CC1	> 20 µM (inactive)
Cn1c(=O)c2c(nc(NCCOc3ccc(C(C)(C)C)cc3)n2C)n(C)c1=O	> 20 µM (inactive)
CCN(CC)C(=O)c1ccc(S(=O)(=O)N2CCC(c3nc4ccccc4s3)CC2)cc1	> 20 µM (inactive)
O=C(COC(=O)c1ccc2[nH]c3c(c2c1)CCCC3)Nc1ccccc1Cl	> 20 µM (inactive)
CCc1nc(N)nc(N)c1-c1ccc(N(C)Cc2ccccc2)c([N+](=O)[O-])c1	18.4 µM
C#CC[N+](C)(C)CCCCCCCCCCCC	> 20 µM (inactive)
CC[N+](CC)(CC#Cc1ccccc1)CC#Cc1ccccc1	> 20 µM (inactive)
CCC(C)[C@H]1CN=C(N)N1CCc1cccc2ccccc12 (some centres not stated)	> 20 µM (inactive)
CCCCCCCN1C2=NCCCN2c2ccccc21	> 20 µM (inactive)
COc1ccc(Cn2c(-c3ccc(Cl)cc3)c[n+]3ccccc23)cc1	> 20 µM (inactive)
CC(C)(C)c1ccc(C(=O)NC(=S)Nc2ccc(N3CCOCC3)cc2)cc1	> 20 µM (inactive)
Cc1ccc(C)c(N2CC(O)(c3cccs3)[N+]3=C2CCCC3)c1 (configuration not stated)	> 20 µM (inactive)
C(#Cc1ccccc1)C[N+]1(CC#Cc2cccc3ccccc23)CCCC1	> 20 µM (inactive)
CCN(CC)S(=O)(=O)c1ccc(S(=O)(=O)N2CCCC(C(=O)NC3CC3)C2)cc1 (configuration not stated)	> 20 µM (inactive)
CCn1c(=NC(=O)CCS(=O)(=O)c2ccccc2)sc2cccc(OC)c21	> 20 µM (inactive)
CN1/C(=C\C=N\NC(=O)c2ccc(O)cc2)C(C)(C)c2ccccc21	4.84 µM
Cc1ccc(NCC(=O)Nc2cccc(S(=O)(=O)N(C)C)c2)cc1S(=O)(=O)N1CCCCCC1	> 20 µM (inactive)
NC(=O)CC(NC(=O)c1ccccc1)c1ccc(N2CCCCCC2)c([N+](=O)[O-])c1 (configuration not stated)	> 20 µM (inactive)
CC(C)C(=O)NC(=S)/C=C1/N(C)c2ccccc2C1(C)C	> 20 µM (inactive)
Cn1nc(CC(=O)NCc2ccc(C(F)(F)F)cc2)c2ccccc2c1=O	> 20 µM (inactive)
CN1/C(=C\C(=O)COC(=O)CNC(=O)c2ccc3ccccc3c2)C(C)(C)c2ccccc21	> 20 µM (inactive)

Structure (SMILES)	IC50
CCCn1c(SCC(=O)Nc2nc(-c3ccc(OC)cc3)cs2)nc2c1c(=O)n(C)c(=O)n2C	> 20 µM (inactive)
CC[C@@H](O)C[C@H]1CCC[C@@]2(C[C@@H]3OC(=O)/C=C/[C@@](C)(O)[C@@H](O)[C@H](C)[C@@H](O)[C@H](OC4CCC(N(C)C)C(C)O4)[C@@H](O)[C@](C)(O)CCCCC/C=C/[C@@H]4CC(C)(C)O[C@@]4(O)C[C@H](O2)[C@H]3C)O1 (some centres not stated)	> 20 µM (inactive)
O=S(=O)(c1ccc2c(c1)nc(COc1ccc(Cl)cc1)n2CC1CCCO1)N1CCOCC1 (configuration not stated)	> 20 µM (inactive)
CC(C)C(=O)N1CCN(c2ccccc2NC(=O)COc2ccccc2)CC1	> 20 µM (inactive)
Cc1nc2sccn2c1-c1csc(NCc2ccccc2)n1	> 20 µM (inactive)
CC(=O)N1c2ccc(S(=O)(=O)N3CCC(C(=O)N4CCCCC4)CC3)cc2CC1C (configuration not stated)	> 20 µM (inactive)
COc1ccc(CNCC(O)COc2cccc3c2OC(C)(C)C3)cc1 (configuration not stated)	> 20 µM (inactive)
CCn1c(/C=C/Nc2ccccc2)[n+](CC)c2cc(Cl)c(Cl)cc21	9.98 µM
C=CCOc1nc2c(c(=O)n(C)c(=O)n2C)n1Cc1ccc(Cl)cc1	> 20 µM (inactive)
COc1ccc(CNc2ncnc3c2[nH]c2ccccc23)cc1	> 20 µM (inactive)
CCOc1ccc(S(=O)(=O)NCc2ccncc2)cc1NC(=O)c1ccccc1	> 20 µM (inactive)
O=C(Cn1c(-c2ccccc2)c[n+]2ccsc12)c1ccc(Br)cc1	> 20 µM (inactive)
O=C(C[n+]1cc(-c2ccccc2)n2c1CCCCC2)c1ccc(Cl)cc1	> 20 µM (inactive)
COc1ccc(C(C(=O)NC2CCCCC2)N(C(=O)CCl)c2ccc(Cl)cc2)cc1 (configuration not stated)	4.86 µM
C[C@@H]1COC(=O)[C@@H](NC(=O)OCC2c3ccccc3-c3ccccc32)C/C=C\C[C@@H](CC(=O)N(CCO)Cc2ccccc2)C(=O)N1	> 20 µM (inactive)
CCC(=O)c1ccc(OCC(O)Cn2c(C)nc3ccccc32)cc1 (configuration not stated)	> 20 µM (inactive)
Cc1sc2ncnc(N3CCN(S(=O)(=O)c4ccc(C(C)(C)C)cc4)CC3)c2c1C	> 20 µM (inactive)
C[n+]1c2n(c3ccccc31)N=C(c1ccccc1)CS2	> 20 µM (inactive)
C=CCOc1nc2c(c(=O)n(C)c(=O)n2C)n1Cc1ccc(Cl)cc1Cl	> 20 µM (inactive)
Cn1c(=O)c2c(nc(NCc3ccco3)n2Cc2ccc(Cl)cc2Cl)n(C)c1=O	> 20 µM (inactive)
CCc1c(C)nc2ncnn2c1N1CCN(S(=O)(=O)c2ccc(OC)cc2)CC1	> 20 µM (inactive)
CCCN1CCC(=O)N([C@H](CSc2ccc(OC)cc2)Cc2ccccc2)CC1	> 20 µM (inactive)
COc1ccc(NS(=O)(=O)c2ccc(NC(C)=O)cc2)cc1OC	> 20 µM (inactive)

Structure (SMILES)	IC50
O=C(Cn1cc(C(=O)c2ccco2)c2ccccc21)Nc1ccccc1F	> 20 µM (inactive)
CCOC(CN=c1nc(N(C)C)ss1)OCC	18.6 µM
O=C(N[C@@H]1C/C=C\C[C@H](CC(=O)N(CCO)Cc2ccccc2)C(=O)NC[C@@H](c2ccccc2)OC1=O)OCC1c2ccccc2-c2ccccc21	> 20 µM (inactive)
CC(C)(C)c1ccc(CN2C3=NCCCN3c3ccccc32)cc1	19.1 µM
COc1ccc2c(c1)c(C)cc[n+]2Cc1ccccc1	> 20 µM (inactive)
Cc1nn(C)c(C)c1/C=C/C(=O)c1ccc(Cl)cc1Cl	> 20 µM (inactive)
CCn1c(=O)cc(SCC(=O)N2CCN(C3CCCCC3)CC2)c2ccccc21	> 20 µM (inactive)
CCc1ccc(CN(C)C(=O)c2cc(COc3cccc4cnccc34)on2)cc1	> 20 µM (inactive)
Cc1c(CCOC(=O)C23CC4CC(CC(C)(C4)C2)C3)sc[n+]1Cc1ccccc1	> 20 µM (inactive)
CC(=O)/C(=N\Nc1ccc(Cl)cc1Cl)Sc1cccc2cccnc12	> 20 µM (inactive)
COc1nnc(-c2ccc(N3CCCCC3)c(N)c2)c2ccccc12	> 20 µM (inactive)
CC(=O)Nc1ccc(S(=O)(=O)N(Cc2ccccc2)C(C)C)cc1	> 20 µM (inactive)
COc1ccc(CCNc2ncnc3c2oc2ccccc23)cc1OC	> 20 µM (inactive)
C=CCNC(=S)/N=c1/ccccn1Cc1ccccc1	> 20 µM (inactive)
c1ccc2c(c1)OCC(CNc1ncnc3sccc13)O2 (configuration not stated)	> 20 µM (inactive)
Cc1cc(Br)c(S(=O)(=O)NCc2ccncc2)cc1C	> 20 µM (inactive)
COc1ccc(CN(C)C(=O)c2cccc(NC(=O)CC3SC(N4CCCCC4)=NC3=O)c2)c(OC)c1 (configuration not stated)	> 20 µM (inactive)
c1ccc(-c2c[n+]3c(n2-c2ccccc2)SCC3)cc1	> 20 µM (inactive)
CCCCOc1ccc(N2C(N)=NC(N)=NC23CCCCC3)cc1	> 20 µM (inactive)
Cc1nc2ncccn2c1-c1csc(Nc2ccc(O)cc2)n1	> 20 µM (inactive)
Cc1ccc2c(c1)S/C(=C/c1ccc[n+](C)c1)N2CCO	> 20 µM (inactive)
